This note sets out measurements from publication PMC12501029, “Discovery of a CNS active GSK3 degrader using orthogonally reactive linker screening” (Nature Communications, 2025).

Structures are written as SMILES.

The assay concerns HEK293 cells proteome. Description: Tandem-Mass-Tagging global (whole) proteomics in HEK293 cells. It counts as cell-based, human. Particulars: 10 nM. The protocol: For unbiased degradation profiling of compounds at the proteome level, HEK293 cells were seeded onto 10 cm plates at a density of 2–2.5 × 10^6 cells per plate. […] After treatment, cells were washed twice with PBS (Gibco), collected in Lobinding tubes (Merck) and lysed in RIPA buffer supplemented with Protease (Roche) and Phosphatase (Roche) inhibitors as previously described for 20 min on ice. Lysates were cleared via centrifugation and protein concentrations were determined by using Pierce BCA assay (Thermo Scientific). Similarly, brain and liver tissues from control and KH1 (24) treated mice were lysed as described above. One hundred and fifty micrograms of protein from tissues or cells for each condition was aliquoted into LoBind tubes (Eppendorf) and the STRAP (Protifi) protocol was followed according to manufacturers’ instructions with slight modifications. Briefly, liquid protein samples mixed with 2× Lysis buffer (10%SDS, 100 mM TEAB pH 8.5), protein was reduced with 5 mM DTT final concentration at 55 °C for 15 min, alkylated (final concentration 20 mM IAA or CAA) at room temperature for 10 min and then acidified (12% phosphoric acid). Protein was then trapped into S-trap columns and washed with S-trap binding/wash buffer (100 mM TEAB in 90% methanol) via centrifugation at 4000 × g for 30 s. Cleaned proteins then went through tryptic digestion (Trypsin (Thermo Scientific) in 50 mM TEAB) overnight at 37 °C or 2 h at 47 °C. Digested peptides were sequentially eluted in 80 µL of 50 mM TEAB (Sigma–Aldrich), 0.2% formic acid (Sigma–Aldrich) and 50% acetonitrile (Sigma–Aldrich). Elutions were pooled and dried down. Dried and cleaned peptides were reconstituted in 110 µL of 100 mM TEAB. TMT-16-plex reagent (Thermo Scientific) was brought into room temperature and reconstituted in 40 µL of anhydrous acetonitrile. TMT reagent solution was transferred to the peptides and incubated on thermoshaker (Eppendorf) at 400 rpm at room temperature for 1 h in the dark. Peptides were quenched by the addition of 8 µL of 5% Hydroxylamine for 1 h at room temperature. TMT-labelled peptides were pooled together and dried down in the speedVac for downstream processing. […]
The dried peptides were reconstituted in 0.1% formic acid and analyzed on an Orbitrap Ascend mass spectrometer coupled to a Thermo Fisher Scientific Vanquish Neo UHPLC. […] The precursor ions for MS2 were isolated using a Quadrupole mass filter at a 0.7 Da isolation width, fragmented using a normalised 30% HCD of ion routing multipole and analyzed using ion trap. The top 10 MS2 fragment ions in a subsequent scan were isolated and fragmented using HCD at a 55% normalised collision energy and analyzed using an Orbitrap mass analyser at a 60,000 resolution, in the scan range of 100–500 m/z. […]

For the compound `Cn1nc(N2CCC(=O)NC2=O)c2ccc(CN3CCN(Cc4ccc(-c5cn(-c6ccc(-c7cn8nccc(C(=O)Nc9cnccc9N9CCOCC9)c8n7)cc6)nn5)nc4)CC3)cc21` [compound 24], the proteome-wide selectivity entry (4 and 24 h, vs DMSO and negative control 27) is “consistent proteome-wide selectivity for GSK3α and GSK3β”; the proteome-wide selectivity result (2 h, vs DMSO and negative control) was “exquisite selectivity for GSK3 paralogs”. The “β-catenin abundance, log2 fold change” value is on record as “+0.63” (4 h, p < 0.0005) and “+0.89” (24 h, p < 0.005).
